The text below walks through data of patent US20210053957A1, “HERBICIDAL COMPOUNDS” (SYNGENTA PARTICIPATIONS AG, priority 2018, published 2021).

Common to all, as to assay: Post-emergence efficacy, glasshouse spray test
Holding throughout (assay type): in vivo

The subject of one test is Setaia fabei (SETFA). The conditions noted are these: Setaria faberi, post-emergence, 312 h; Application Rate 500 g/Ha; evaluated after 13 days; read-out: Control of weed species after post-emergence application, SETFA (100=total damage to plant; 0=no damage to plant). The method in brief:
(§1)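 Spray solution: compound dissolved in acetone and IF50 emulsifier/solvent mix to 50 g/l stock, then diluted to test concentration in 0.25% or 1% sodium lauryl ether sulphate + 1% ammonium sulphate. Applied post-emergence to 14-day plants; injury scored 0–100 after 13 days.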

In test [1] the test system is Euphorbia heterophylla (EPHHL). The conditions noted are these: Euphorbia heterophylla, post-emergence, 312 h; Application Rate 500 g/Ha; evaluated after 13 days; read-out: Control of weed species after post-emergence application, EPHHL (100=total damage to plant; 0=no damage to plant). The method, boiled down:
as §1

Another test concerns Eleusine indica (ELEIN). The conditions noted are these: Eleusine indica, post-emergence, 312 h; Application Rate 500 g/Ha; evaluated after 13 days; read-out: Control of weed species after post-emergence application, ELEIN (100=total damage to plant; 0=no damage to plant). The method in brief: as §1
Test [2] relates to Digitaria sanguinalis (DIGSA). The conditions noted are these: Digitaria sanguinalis, post-emergence, 312 h; Application Rate 500 g/Ha; evaluated after 13 days; read-out: Control of weed species after post-emergence application, DIGSA (100=total damage to plant; 0=no damage to plant). The method in brief:
as §1

Another test relates to Lolium perenne (LOLPE). The conditions noted are these: Lolium perenne, post-emergence, 312 h; Application Rate 500 g/Ha; evaluated after 13 days; read-out: Control of weed species after post-emergence application, LOLPE (100=total damage to plant; 0=no damage to plant). The method, boiled down: as §1
The subject of test [3] is Amaranthus palmeri (AMAPA). The conditions noted are these: Amaranthus palmeri, post-emergence, 312 h; Application Rate 500 g/Ha; evaluated after 13 days; read-out: Control of weed species after post-emergence application, AMAPA (100=total damage to plant; 0=no damage to plant). The method, boiled down: as §1
Test [4] has as its system Chenopodium album (CHEAL). The conditions noted are these: Chenopodium album, post-emergence, 312 h; Application Rate 500 g/Ha; evaluated after 13 days; read-out: Control of weed species after post-emergence application, CHEAL (100=total damage to plant; 0=no damage to plant). The method in brief: as §1
Test [5] deals with Ipomoea hederacea (IPOHE). The conditions noted are these: Ipomoea hederacea, post-emergence, 312 h; Application Rate 500 g/Ha; evaluated after 13 days; read-out: Control of weed species after post-emergence application, IPOHE (100=total damage to plant; 0=no damage to plant). The method, boiled down:
as §1

The test system of test [6] is Echinochloa crus-galli (ECHCG). The conditions noted are these: Echinochloa crus-galli, post-emergence, 312 h; Application Rate 500 g/Ha; evaluated after 13 days; read-out: Control of weed species after post-emergence application, ECHCG (100=total damage to plant; 0=no damage to plant). The method in brief:
as §1

Structures are written as SMILES.

In the case of `COc1cc(-c2cc[n+](CCS(=O)(=O)[O-])nc2)sn1` [Compound A34], the pest or weed control at 500 g/ha in the test on Setaia fabei (SETFA) turned out to be 40%; in [1], 30%; in the test with Eleusine indica (ELEIN), 20%; in test [2], 30%; in the test on Lolium perenne (LOLPE), 20%; in test [3], 60%. In addition, the pest or weed control at 500 g/ha in test [4] came to 20%; in test [5], 20%; in test [6] it was 50%.

As for `Cc1cc(-c2cc[n+](CCS(=O)(=O)[O-])nc2)sn1` [Compound A35], the pest or weed control at 500 g/ha in the test with Setaia fabei (SETFA) came out at 60%; in test [1], 90%; with Eleusine indica (ELEIN), 70%; in test [2], 50%; with Lolium perenne (LOLPE), 70%; in test [3] it was 100%. Moreover, the results for the pest or weed control at 500 g/ha in test [4], in test [5] and in test [6] were 100%, 50% and 50%, respectively.

Consider `O=S(=O)([O-])CC[n+]1ccc(-c2cccs2)cn1` [Compound A36], for which the pest or weed control at 500 g/ha in the test with Setaia fabei (SETFA) came to 10%; in test [1], 30%; in the test with Eleusine indica (ELEIN), 20%; in test [2], 10%; with Lolium perenne (LOLPE), 20%; in [3], 100%. For the same compound, the pest or weed control at 500 g/ha in [4] came to 60%; in [5], 30%; in [6] it was 0%.

`O=C(O)CC[n+]1ccc(-c2nnc[nH]2)cn1` [Compound A37]: the pest or weed control at 500 g/ha was 10% with Setaia fabei (SETFA); 30% in test [1]; 10% with Eleusine indica (ELEIN); 10% in test [2]; 0% with Lolium perenne (LOLPE); 30% in test [3]. The figures for the pest or weed control at 500 g/ha in [4], in test [5] and in [6] were 50%, 20% and 10%, respectively.

Consider `O=S(=O)([O-])CC[n+]1ccc(-c2ncn[nH]2)cn1` [Compound A38], for which the pest or weed control at 500 g/ha is 10% with Setaia fabei (SETFA); 20% in [1]; 0% in the test with Eleusine indica (ELEIN); 20% in test [2]; 10% in the test with Lolium perenne (LOLPE); 20% in test [3]. Also, the pest or weed control at 500 g/ha in [4] came out at 30%; in [5] it was 20%; in test [6], 10%.

On to `Cn1cnc(-c2cc[n+](CCS(=O)(=O)[O-])nc2)n1` [Compound A39], for which the pest or weed control at 500 g/ha with Setaia fabei (SETFA) stood at 90%; in test [1], 90%; in the test with Eleusine indica (ELEIN), 80%; in test [2], 90%; in the test with Lolium perenne (LOLPE) it was 70%; in test [3], 90%. The pest or weed control at 500 g/ha in test [4] was found to be 90%; in test [5], 80%; in test [6], 80%.

In the case of `Cc1coc(-c2cc[n+](CCS(=O)(=O)[O-])nc2)n1` [Compound A40], the pest or weed control at 500 g/ha in the test on Setaia fabei (SETFA) stood at 80%; in test [1], 100%; with Eleusine indica (ELEIN), 100%; in [2] it was 80%; in the test with Lolium perenne (LOLPE), 80%; in test [3], 100%. The pest or weed control at 500 g/ha in [4] worked out at 100%; in [5], 90%; in test [6], 80%.

On to `O=S(=O)([O-])CC[n+]1ccc(-c2ccoc2)cn1` [Compound A42], for which the pest or weed control at 500 g/ha turned out to be 10% in the test on Setaia fabei (SETFA); 30% in [1]; 20% in the test on Eleusine indica (ELEIN); 20% in test [2]; 0% with Lolium perenne (LOLPE); 20% in test [3]. Moreover, the pest or weed control at 500 g/ha in test [4] stood at 40%; in test [5] it was 20%; in test [6] it was 10%.

Take `O=C(O)CC[n+]1ccc(-c2ccoc2)cn1` [Compound A43]: the pest or weed control at 500 g/ha in the test with Setaia fabei (SETFA) worked out at 10%; in test [1], 80%; with Eleusine indica (ELEIN), 10%; in [2], 20%; with Lolium perenne (LOLPE) it was 0%; in test [3] it was 100%. Besides, the pest or weed control at 500 g/ha in test [4] was determined as 90%; in test [5], 20%; in [6], 10%.

Take `CNc1nnc(-c2cc[n+](CCS(=O)(=O)[O-])nc2)s1` [Compound A45]: the pest or weed control at 500 g/ha in the test with Setaia fabei (SETFA) amounted to 70%; in [1], 90%; in the test with Eleusine indica (ELEIN) it was 70%; in [2], 50%; with Lolium perenne (LOLPE), 70%; in test [3], 100%. Besides, the pest or weed control at 500 g/ha in test [4] was determined as 80%; in test [5], 20%; in test [6], 40%.

As to `Nc1nnc(-c2cc[n+](CCC(=O)O)nc2)s1` [Compound A47], the pest or weed control at 500 g/ha amounted to 90% in the test on Setaia fabei (SETFA); 100% in [1]; 100% in the test on Eleusine indica (ELEIN); 90% in [2]; 100% in the test on Lolium perenne (LOLPE); 100% in test [3]. The results for the pest or weed control at 500 g/ha in test [4], in test [5] and in test [6] were 100%, 30% and 90%, respectively.

`Cn1nncc1-c1cc[n+](CCC(=O)O)nc1` [Compound A48]: the pest or weed control at 500 g/ha stood at 90% in the test with Setaia fabei (SETFA); 90% in test [1]; 70% in the test on Eleusine indica (ELEIN); 100% in test [2]; 40% in the test with Lolium perenne (LOLPE); 100% in test [3]. The figures for the pest or weed control at 500 g/ha in test [4], in test [5] and in test [6] were 90%, 90% and 70%, respectively.

Regarding `Cn1nncc1-c1cc[n+](CCS(=O)(=O)[O-])nc1` [Compound A49], the pest or weed control at 500 g/ha was found to be 60% in the test on Setaia fabei (SETFA); 90% in test [1]; 60% in the test with Eleusine indica (ELEIN); 70% in test [2]; 40% in the test with Lolium perenne (LOLPE); 100% in test [3]. For the same compound, the pest or weed control at 500 g/ha in [4] worked out at 100%; in [5] it was 70%; in test [6] it was 60%.

With `Cn1cnnc1-c1cc[n+](CCS(=O)(=O)[O-])nc1` [Compound A50], the pest or weed control at 500 g/ha in the test with Setaia fabei (SETFA) is 100%; in test [1], 100%; in the test on Eleusine indica (ELEIN) it was 70%; in [2] it was 100%; in the test on Lolium perenne (LOLPE), 80%; in test [3] it was 100%. In addition, the pest or weed control at 500 g/ha in test [4] came to 100%; in [5] it was 70%; in [6] it was 100%.

Take `Cn1cnc(-c2cc[n+](CCC(=O)O)nc2)n1` [Compound A51]: the pest or weed control at 500 g/ha is 90% in the test on Setaia fabei (SETFA); 90% in [1]; 70% in the test on Eleusine indica (ELEIN); 90% in [2]; 60% in the test on Lolium perenne (LOLPE); 100% in test [3]. Further, the pest or weed control at 500 g/ha in test [4] was determined as 100%; in [5] it was 30%; in [6], 90%.
